Patent US20210255193A1, “LYSINE REACTIVE PROBES AND USES THEREOF” (The Scripps Research Institute, priority 2017, published 2021)
Blank lines part the entries; values can stand above or below the compound they belong to.

Legend:
Test in all cases: competitive isoTOP-ABPP
Assay type in all cases: binding
[1] = target: T1, ACBD3 Golgi resident protein GCP60 (Homo sapiens, UniProt Q9H3P7); set-up: key to isoTOP-ABPP reactivity ratio at lysine Q9H3P7_K117: R = MS1 peak area ratio, DMSO (heavy) / compound-treated (light); details: for R value (DMSO/fragment) for probe 1 labeling: Q9H3P7_K117; for R value (DMSO/fragment) for probe 1 labeling / isoTOP-ABPP ratio (R) at liganded lysine Q9H3P7_K117 / isoTOP-ABPP reactivity ratio at lysine Q9H3P7_K117: 50 uM, in vitro; for R value (DMSO/fragment) for probe 1 labeling / isoTOP-ABPP reactivity ratio at lysine Q9H3P7_K117: 231 sol; for isoTOP-ABPP ratio (R) at liganded lysine Q9H3P7_K117: sol, 231
T1 construct: isoTOP-ABPP experiments performed in cell lysates (in vitro); endogenous in cells; host or cells: soluble proteome of human cancer cell lines (MDA-MB-231; Ramos and Jurkat also prepared)
T1 sequence (Q9H3P7 1-528): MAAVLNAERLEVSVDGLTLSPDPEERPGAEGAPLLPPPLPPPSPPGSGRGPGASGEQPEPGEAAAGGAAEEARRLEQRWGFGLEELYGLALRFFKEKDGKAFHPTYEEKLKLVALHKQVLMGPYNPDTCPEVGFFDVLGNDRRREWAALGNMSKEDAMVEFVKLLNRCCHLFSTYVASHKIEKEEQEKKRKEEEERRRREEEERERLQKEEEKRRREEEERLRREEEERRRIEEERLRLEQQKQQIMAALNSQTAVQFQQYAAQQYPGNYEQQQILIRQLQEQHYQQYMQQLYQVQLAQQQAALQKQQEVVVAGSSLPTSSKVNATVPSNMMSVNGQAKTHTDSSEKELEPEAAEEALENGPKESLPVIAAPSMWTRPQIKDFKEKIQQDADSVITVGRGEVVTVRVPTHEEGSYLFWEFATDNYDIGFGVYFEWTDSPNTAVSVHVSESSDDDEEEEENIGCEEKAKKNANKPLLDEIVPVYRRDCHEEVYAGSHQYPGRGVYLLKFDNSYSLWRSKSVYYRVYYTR
Experimental: (§1) In vitro covalent fragment treatment for isoTOP-ABPP. All compounds were made up as solutions in DMSO (100×) and were used at a final concentration of 50 μM for activated esters and 100 μM for guanidinylating agents. For each profiling sample, 0.5 ml of lysate was treated with 5 μl of the 100× compound stock solution or 5 μl of DMSO. Samples were treated with activated esters for
(§2) STP-alkyne labeling and click chemistry. For concentration-dependent reactivity measurements by isoTOP-ABPP, 0.5 ml proteome aliquots were treated at ambient temperature with 1 mM STP-alkyne 1 (5 μl of 100 mM stock in DMSO) and 0.1 mM STP alkyne 1 (5 μl of 10 mM stock in DMSO), respectively. For competitive isoTOP-ABPP, after in vitro fragment treatment (detailed above), the samples were labeled for 1 h at ambient temperature with 0.1 mM STP-alkyne 1 (5 μl of 10 mM stock in DMSO). Samples were conjugated by copper-mediated azide-alkyne cycloaddition (CuAAC) to either the light (1 mM STP-alkyne or fragment treated) or heavy (0.1 mM STP-alkyne or DMSO treated) TEV tags (10 μl of 5 mM stocks in DMSO, final concentration=100 μM) using tris(2-carboxyethyl)phosphine hydrochloride
(§3) R value calculation and processing. The ratios of light and heavy MS1 peaks for each unique peptide were quantified with a CIMAGE software using default parameters (3 MS1 acquisitions per peak and signal to noise threshold set to 2.5). For reactivity measurements by isoTOP-ABPP, the R value was calculated from the ratio of MS1 peak areas, comparing the 1 mM STP alkyne sample (light TEV tag) with the 0.1 mM STP alkyne sample (heavy TEV tag). For competitive isoTOP-ABPP, the R value was calculated from the ratio of MS1 peak areas, comparing the DMSO treated sample (heavy TEV tag) with the compound treated sample (light TEV tag). […] Ratios for unique peptide entries are calculated for each experiment; overlapping peptides with the same modified lysine (for example, different charge states, MudPIT chromatographic steps or tryptic termini) are grouped together and the median ratio is reported as the final ratio (R). The peptide ratios reported by CIMAGE were further filtered to ensure the removal or correction of low-quality ratios in each individual data set. The quality filters applied were the following: removal of half tryptic peptides; for ratios with high standard deviations from the median (90% of the median or above) the lowest ratio was taken instead of the median; removal of peptides with R=20 and only a single MS2 event triggered during the elution of the parent ion; manual annotation of all the peptides with ratios of 20, removing any peptides with low quality elution profiles that remained after the previous curation steps (only done for competitive isoTOP-ABPP).
(§4) Cross-data processing for fragment screening. For compound treated samples, biological replicates of the same condition were averaged, if the standard deviation was below 60% of the mean; otherwise, for lysines with at least one R value <4 for a particular compound, the lowest value of the ratio set was taken. For lysines, where all R values for a particular compound were ≥4, the average was reported. For peptides containing several possible modified lysines, the lysine with the highest number of quantification events was used for analysis and the remaining, redundant peptides were reported as alternative modification sites. Peptides included in the aggregate dataset (those used for further bioinformatics and statistical analyses) were required to have been quantified in 2 experiments for competitive isoTOP-ABPP. Lysines were categorized as liganded, if they had at least one ratio R≥4 (hit fragments). For liganded lysines with R=20 for all liganding events, lysines were required to have been quantified with R=20 in two separate experiments and were further required to have been quantified with R<20 in one additional experiment.

[2] = target: T2, ADK Adenosine kinase (Homo sapiens, UniProt P55263); set-up: key to isoTOP-ABPP reactivity ratio at lysine P55263_K88: R = MS1 peak area ratio, DMSO (heavy) / compound-treated (light); details: for R value (DMSO/fragment) for probe 1 labeling: P55263_K88; for R value (DMSO/fragment) for probe 1 labeling / isoTOP-ABPP ratio (R) at liganded lysine P55263_K88 / isoTOP-ABPP reactivity ratio at lysine P55263_K88: 50 uM, in vitro; for R value (DMSO/fragment) for probe 1 labeling / isoTOP-ABPP reactivity ratio at lysine P55263_K88: 231 sol; for isoTOP-ABPP ratio (R) at liganded lysine P55263_K88: sol, 231
T2 construct: isoTOP-ABPP experiments performed in cell lysates (in vitro); endogenous in cells; host or cells: soluble proteome of human cancer cell lines (MDA-MB-231, Ramos, Jurkat)
T2 sequence (P55263 whole entry, the tested form may be a part): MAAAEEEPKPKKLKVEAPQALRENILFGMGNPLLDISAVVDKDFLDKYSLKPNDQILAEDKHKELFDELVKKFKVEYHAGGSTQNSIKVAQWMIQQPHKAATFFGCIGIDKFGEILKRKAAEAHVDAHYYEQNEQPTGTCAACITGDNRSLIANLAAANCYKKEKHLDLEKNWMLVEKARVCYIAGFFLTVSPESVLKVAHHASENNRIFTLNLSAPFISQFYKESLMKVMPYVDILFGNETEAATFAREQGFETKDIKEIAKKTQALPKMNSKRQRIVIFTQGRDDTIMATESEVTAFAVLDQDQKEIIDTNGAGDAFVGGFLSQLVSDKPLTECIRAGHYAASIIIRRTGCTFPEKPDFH
Experimental: as §1, §2, §3, §4

[3] = target: T3, PSME3 Proteasome activator complex subunit 3 (Homo sapiens, UniProt P61289); set-up: key to isoTOP-ABPP reactivity ratio at lysine P61289_K237: R = MS1 peak area ratio, DMSO (heavy) / compound-treated (light); key to isoTOP-ABPP reactivity ratio at lysine P61289_K12: R = MS1 peak area ratio, DMSO (heavy) / compound-treated (light); capped at 20; details: for R value (DMSO/fragment) for probe 1 labeling / isoTOP-ABPP ratio (R) at liganded lysine P61289_K12 / isoTOP-ABPP ratio (R) at liganded lysine P61289_K237 / isoTOP-ABPP reactivity ratio at lysine P61289_K12 / isoTOP-ABPP reactivity ratio at lysine P61289_K237: 50 uM, in vitro; for R value (DMSO/fragment) for probe 1 labeling / isoTOP-ABPP reactivity ratio at lysine P61289_K12 / isoTOP-ABPP reactivity ratio at lysine P61289_K237: 231 sol; for isoTOP-ABPP ratio (R) at liganded lysine P61289_K12 / isoTOP-ABPP ratio (R) at liganded lysine P61289_K237: sol, 231
T3 construct: isoTOP-ABPP experiments performed in cell lysates (in vitro); endogenous in cells; host or cells: soluble proteome of human cancer cell lines (MDA-MB-231, Ramos, Jurkat)
T3 sequence (P61289 whole entry, the tested form may be a part, one chain of several): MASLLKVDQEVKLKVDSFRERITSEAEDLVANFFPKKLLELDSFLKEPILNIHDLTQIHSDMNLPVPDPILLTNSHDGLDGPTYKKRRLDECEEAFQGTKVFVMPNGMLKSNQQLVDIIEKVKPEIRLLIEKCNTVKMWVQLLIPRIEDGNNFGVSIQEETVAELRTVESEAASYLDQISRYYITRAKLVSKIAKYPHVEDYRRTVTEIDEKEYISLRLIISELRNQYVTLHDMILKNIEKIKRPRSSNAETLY
Experimental: as §1, §2, §3, §4

[4] = target: T4, ABHD10 Abhydrolase domain-containing protein 10, mitochondrial (Homo sapiens, UniProt Q9NUJ1); set-up: key to isoTOP-ABPP reactivity ratio at lysine Q9NUJ1_K185: R = MS1 peak area ratio, DMSO (heavy) / compound-treated (light); capped at 20; details: for R value (DMSO/fragment) for probe 1 labeling: Q9NUJ1_K185; for R value (DMSO/fragment) for probe 1 labeling / isoTOP-ABPP ratio (R) at liganded lysine Q9NUJ1_K185 / isoTOP-ABPP reactivity ratio at lysine Q9NUJ1_K185: 50 uM, in vitro; for R value (DMSO/fragment) for probe 1 labeling / isoTOP-ABPP reactivity ratio at lysine Q9NUJ1_K185: 231 sol; for isoTOP-ABPP ratio (R) at liganded lysine Q9NUJ1_K185: sol, 231
T4 construct: endogenous in cells; host or cells: MDA-MB-231 lysate
T4 sequence (Q9NUJ1 53-306): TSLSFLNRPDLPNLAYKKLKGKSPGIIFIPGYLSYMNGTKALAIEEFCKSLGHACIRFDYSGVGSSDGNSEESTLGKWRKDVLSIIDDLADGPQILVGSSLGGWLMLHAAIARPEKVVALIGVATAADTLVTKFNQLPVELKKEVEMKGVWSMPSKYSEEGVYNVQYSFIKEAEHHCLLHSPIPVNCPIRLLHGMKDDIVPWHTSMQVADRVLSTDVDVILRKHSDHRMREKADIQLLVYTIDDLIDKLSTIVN
Experimental: as §1, §2, §3, §4

R value (DMSO/fragment) for probe 1 labeling [1]: 1.2
R value (DMSO/fragment) for probe 1 labeling [2]: 1.0
R value (DMSO/fragment) for probe 1 labeling ([3]; P61289_K12): 0.9
R value (DMSO/fragment) for probe 1 labeling ([3]; P61289_K237): 1.1
R value (DMSO/fragment) for probe 1 labeling [4]: 1.5
SMILES: Cn1cc(CC(=O)Oc2c(F)c(F)c(F)c(F)c2F)c2ccccc21 [fragment 22, Pentafluorophenyl 2-(1-methyl-1H-indol-3-yl)acetate]

SMILES: O=C(Oc1ccc([N+](=O)[O-])cc1[N+](=O)[O-])c1ccc2ccccc2n1 [fragment 35, 2,4-Dinitrophenyl quinoline-2-carboxylate]
isoTOP-ABPP ratio (R) at liganded lysine Q9H3P7_K117 [1]: 1.3
isoTOP-ABPP ratio (R) at liganded lysine P55263_K88 [2]: 0.6
isoTOP-ABPP ratio (R) at liganded lysine P61289_K12 [3]: 0.7
isoTOP-ABPP ratio (R) at liganded lysine P61289_K237 [3]: 0.8
isoTOP-ABPP ratio (R) at liganded lysine Q9NUJ1_K185 [4]: 1.3

isoTOP-ABPP reactivity ratio at lysine Q9H3P7_K117 [1]: 1.7
isoTOP-ABPP reactivity ratio at lysine P55263_K88 [2]: 0.8
isoTOP-ABPP reactivity ratio at lysine P61289_K12 [3]: 0.9
isoTOP-ABPP reactivity ratio at lysine P61289_K237 [3]: 0.5
isoTOP-ABPP reactivity ratio at lysine Q9NUJ1_K185 [4]: 1.5
SMILES: O=C(Oc1c(F)c(F)c(F)c(F)c1F)c1ccc2ccccc2n1 [fragment 25, Pentafluorophenyl quinoline-2-carboxylate]

R value (DMSO/fragment) for probe 1 labeling [1]: 1.2
R value (DMSO/fragment) for probe 1 labeling [2]: 0.8
R value (DMSO/fragment) for probe 1 labeling ([3]; P61289_K12): 0.9
R value (DMSO/fragment) for probe 1 labeling ([3]; P61289_K237): 0.9
R value (DMSO/fragment) for probe 1 labeling [4]: 1.1
SMILES: O=C(Oc1c(F)c(F)c(F)c(F)c1F)C(c1ccccc1)c1ccccc1 [fragment 20, Pentafluorophenyl 2,2-diphenylacetate]

SMILES: O=C(Oc1ccc([N+](=O)[O-])cc1[N+](=O)[O-])c1cc(C(F)(F)F)cc(C(F)(F)F)c1 [fragment 31, 2,4-Dinitrophenyl 3,5-bis(trifluoromethyl)benzoate]
isoTOP-ABPP reactivity ratio at lysine Q9H3P7_K117 [1]: 1.1
isoTOP-ABPP reactivity ratio at lysine P55263_K88 [2]: 0.7
isoTOP-ABPP reactivity ratio at lysine P61289_K12 [3]: 1.1
isoTOP-ABPP reactivity ratio at lysine P61289_K237 [3]: 1.1
isoTOP-ABPP reactivity ratio at lysine Q9NUJ1_K185 [4]: 4.4

isoTOP-ABPP ratio, lysine Q9H3P7_K117 ([1]; 100 uM_231_sol_in vitro): 14.9
isoTOP-ABPP ratio, lysine P55263_K88 ([2]; 100 uM_231_sol_in vitro): 1.0
isoTOP-ABPP ratio, lysine P61289_K12 ([3]; 100 uM_231_sol_in vitro): 0.7
isoTOP-ABPP ratio, lysine P61289_K237 ([3]; 100 uM_231_sol_in vitro): 0.9
isoTOP-ABPP ratio, lysine Q9NUJ1_K185 ([4]; 100 uM_231_sol_in vitro): 1.3
SMILES: CC(C)(C)OC(=O)N=C(NC(=O)OC(C)(C)C)n1cccn1 [fragment 50, reference compound]

SMILES: O=C(Oc1ccc([N+](=O)[O-])cc1[N+](=O)[O-])c1ccccc1Nc1cccc(C(F)(F)F)c1 [fragment 40, 2,4-Dinitrophenyl 2-((3-(trifluoromethyl)phenyl)amino)benzoate]
isoTOP-ABPP ratio (R) at liganded lysine Q9H3P7_K117 [1]: 0.9
isoTOP-ABPP ratio (R) at liganded lysine P55263_K88 [2]: 0.9
isoTOP-ABPP ratio (R) at liganded lysine P61289_K12 [3]: 0.8
isoTOP-ABPP ratio (R) at liganded lysine P61289_K237 [3]: 0.7
isoTOP-ABPP ratio (R) at liganded lysine Q9NUJ1_K185 [4]: 0.9
